Assay results from ChEMBL document CHEMBL5338706, “Discovery of a potent and selective proteolysis targeting chimera (PROTAC) degrader of NSD3 histone methyltransferase” (Eur J Med Chem, 2022).
Activity calls are given as the source filed them. The rule behind the calls is not given here.

Biological target: T1, Histone-lysine N-methyltransferase NSD3 (Homo sapiens) (UniProt Q9BZ95)
T1 sequence (whole entry): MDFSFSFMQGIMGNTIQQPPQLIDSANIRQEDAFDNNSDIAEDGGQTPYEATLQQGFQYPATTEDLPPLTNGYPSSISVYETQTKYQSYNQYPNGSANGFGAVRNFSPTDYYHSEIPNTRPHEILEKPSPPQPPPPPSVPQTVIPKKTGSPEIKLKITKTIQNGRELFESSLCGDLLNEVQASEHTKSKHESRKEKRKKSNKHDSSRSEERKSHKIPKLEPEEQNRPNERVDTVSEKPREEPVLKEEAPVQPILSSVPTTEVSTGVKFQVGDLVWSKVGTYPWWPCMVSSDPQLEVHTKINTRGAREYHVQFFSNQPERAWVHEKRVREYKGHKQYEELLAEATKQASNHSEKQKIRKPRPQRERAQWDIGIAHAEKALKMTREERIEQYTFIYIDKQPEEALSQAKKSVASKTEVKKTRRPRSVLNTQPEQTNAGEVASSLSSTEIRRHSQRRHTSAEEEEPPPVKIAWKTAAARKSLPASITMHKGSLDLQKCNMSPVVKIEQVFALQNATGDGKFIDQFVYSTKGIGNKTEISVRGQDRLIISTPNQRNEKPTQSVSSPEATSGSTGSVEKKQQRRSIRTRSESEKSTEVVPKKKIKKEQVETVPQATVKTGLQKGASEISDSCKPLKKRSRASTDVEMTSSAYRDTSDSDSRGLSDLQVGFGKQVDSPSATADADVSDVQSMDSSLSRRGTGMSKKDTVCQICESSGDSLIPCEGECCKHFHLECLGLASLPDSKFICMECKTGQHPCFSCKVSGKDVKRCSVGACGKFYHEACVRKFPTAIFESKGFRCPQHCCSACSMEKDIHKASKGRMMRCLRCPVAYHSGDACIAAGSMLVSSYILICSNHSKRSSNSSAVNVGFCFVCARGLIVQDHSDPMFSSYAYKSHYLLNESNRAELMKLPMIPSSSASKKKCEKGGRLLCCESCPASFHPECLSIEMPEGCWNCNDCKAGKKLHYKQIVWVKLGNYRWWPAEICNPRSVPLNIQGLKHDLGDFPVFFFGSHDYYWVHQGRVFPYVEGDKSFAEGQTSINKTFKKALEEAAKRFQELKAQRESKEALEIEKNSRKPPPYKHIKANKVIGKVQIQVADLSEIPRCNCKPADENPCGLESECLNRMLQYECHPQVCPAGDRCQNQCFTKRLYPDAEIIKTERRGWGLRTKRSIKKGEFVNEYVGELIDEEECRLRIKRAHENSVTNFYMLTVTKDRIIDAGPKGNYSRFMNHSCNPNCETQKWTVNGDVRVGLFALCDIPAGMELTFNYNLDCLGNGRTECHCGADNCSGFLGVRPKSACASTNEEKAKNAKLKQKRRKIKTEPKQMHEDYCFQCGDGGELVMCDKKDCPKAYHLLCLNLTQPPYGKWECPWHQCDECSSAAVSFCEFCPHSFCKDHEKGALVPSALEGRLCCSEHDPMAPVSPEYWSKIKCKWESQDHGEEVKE
Assay: Induction of NSD3 degradation in human NCI-H1703 cells at upto 9 uM incubated for 72 hrs by Western blot analysis
Format: cell-based
Details: not given

| Activity | SMILES |
| --- | --- |
| inactive | Cc1cc(CN)cc(C)c1-c1ncn(C)c1-c1ccnc2cc(F)ccc12 |

System: A549
Assay: Antiproliferative activity against human A549 cells at upto 10 uM incubated for 3 days by CCK-8 method
Format: functional, cell-based
Details: time 3.0 day

| SMILES | Activity |
| --- | --- |
| Cc1cc(CN)cc(C)c1-c1ncn(C)c1-c1ccnc2cc(F)ccc12 | inactive |

System: NCI-H1703
Assay: Antiproliferative activity against human NCI-H1703 cells at upto 10 uM incubated for 6 days by CCK-8 method
Format: functional, cell-based
Details: time 6.0 day

| SMILES | Activity |
| --- | --- |
| Cc1cc(CN)cc(C)c1-c1ncn(C)c1-c1ccnc2cc(F)ccc12 | inactive |

Biological target: T1, Histone-lysine N-methyltransferase NSD3 (Homo sapiens)
Assay: Induction of NSD3 degradation in human NCI-H1703 cells at 5 uM incubated for 72 hrs by Western blot analysis
Format: cell-based
Details: not given

| SMILES | NSD3 degradation |
| --- | --- |
| Cc1cc(CNCCCCCCCCCCCCNc2cccc3c2C(=O)N(C2CCC(=O)NC2=O)C3=O)cc(C)c1-c1ncn(C)c1-c1ccnc2cc(F)ccc12 (stereo not drawn) | 1.5% |
| Cc1cc(CNCCCCC(=O)N[C@H](C(=O)N2C[C@H](O)C[C@H]2C(=O)N[C@@H](C)c2ccc(-c3scnc3C)cc2)C(C)(C)C)cc(C)c1-c1ncn(C)c1-c1ccnc2cc(F)ccc12 | -4.2% |
| Cc1cc(CNCCCN2CCN(CCCC(=O)N[C@H](C(=O)N3C[C@H](O)C[C@H]3C(=O)N[C@@H](C)c3ccc(-c4scnc4C)cc3)C(C)(C)C)CC2)cc(C)c1-c1ncn(C)c1-c1ccnc2cc(F)ccc12 | 13.8% |
| Cc1cc(CNCCN2CCN(CCCC(=O)N[C@H](C(=O)N3C[C@H](O)C[C@H]3C(=O)N[C@@H](C)c3ccc(-c4scnc4C)cc3)C(C)(C)C)CC2)cc(C)c1-c1ncn(C)c1-c1ccnc2cc(F)ccc12 | 9.1% |
| Cc1cc(CNCCCCCCCCCNc2cccc3c2C(=O)N(C2CCC(=O)NC2=O)C3=O)cc(C)c1-c1ncn(C)c1-c1ccnc2cc(F)ccc12 (stereo not drawn) | 1.7% |
| Cc1cc(CNCCCCCCCCCCCCCCCC(=O)N[C@H](C(=O)N2C[C@H](O)C[C@H]2C(=O)N[C@@H](C)c2ccc(-c3scnc3C)cc2)C(C)(C)C)cc(C)c1-c1ncn(C)c1-c1ccnc2cc(F)ccc12 | 16.4% |
| Cc1cc(CNCCCCCCCCCCCCCC(=O)N[C@H](C(=O)N2C[C@H](O)C[C@H]2C(=O)N[C@@H](C)c2ccc(-c3scnc3C)cc2)C(C)(C)C)cc(C)c1-c1ncn(C)c1-c1ccnc2cc(F)ccc12 | 45.2% |
| Cc1cc(CNCCCCN2CCN(CC(=O)N[C@H](C(=O)N3C[C@H](O)C[C@H]3C(=O)N[C@@H](C)c3ccc(-c4scnc4C)cc3)C(C)(C)C)CC2)cc(C)c1-c1ncn(C)c1-c1ccnc2cc(F)ccc12 | 11.1% |
| Cc1cc(CNCCCCCCCCCC(=O)N[C@H](C(=O)N2C[C@H](O)C[C@H]2C(=O)N[C@@H](C)c2ccc(-c3scnc3C)cc2)C(C)(C)C)cc(C)c1-c1ncn(C)c1-c1ccnc2cc(F)ccc12 | 1.2% |
| Cc1cc(CNCCCCCCCC(=O)N[C@H](C(=O)N2C[C@H](O)C[C@H]2C(=O)N[C@@H](C)c2ccc(-c3scnc3C)cc2)C(C)(C)C)cc(C)c1-c1ncn(C)c1-c1ccnc2cc(F)ccc12 | -2.4% |
| Cc1cc(CNCCCN2CCN(CCC(=O)N[C@H](C(=O)N3C[C@H](O)C[C@H]3C(=O)N[C@@H](C)c3ccc(-c4scnc4C)cc3)C(C)(C)C)CC2)cc(C)c1-c1ncn(C)c1-c1ccnc2cc(F)ccc12 | 25.8% |
| Cc1cc(CNCCCCCC(=O)N[C@H](C(=O)N2C[C@H](O)C[C@H]2C(=O)N[C@@H](C)c2ccc(-c3scnc3C)cc2)C(C)(C)C)cc(C)c1-c1ncn(C)c1-c1ccnc2cc(F)ccc12 | 1.6% |

The next lines start with the values.

| NSD3 degradation | SMILES |
| --- | --- |
| 6.3% | Cc1cc(CNCCCCCCC(=O)N[C@H](C(=O)N2C[C@H](O)C[C@H]2C(=O)N[C@@H](C)c2ccc(-c3scnc3C)cc2)C(C)(C)C)cc(C)c1-c1ncn(C)c1-c1ccnc2cc(F)ccc12 |
| 37.6% | Cc1cc(CNCCCCCCN2CCN(CC(=O)N[C@H](C(=O)N3C[C@H](O)C[C@H]3C(=O)N[C@@H](C)c3ccc(-c4scnc4C)cc3)C(C)(C)C)CC2)cc(C)c1-c1ncn(C)c1-c1ccnc2cc(F)ccc12 |
| 7.7% | Cc1cc(CNCCOCCOCCOCCOCCC(=O)N[C@H](C(=O)N2C[C@H](O)C[C@H]2C(=O)N[C@@H](C)c2ccc(-c3scnc3C)cc2)C(C)(C)C)cc(C)c1-c1ncn(C)c1-c1ccnc2cc(F)ccc12 |
| 7.4% | Cc1cc(CNCCOCCOCCOCCC(=O)N[C@H](C(=O)N2C[C@H](O)C[C@H]2C(=O)N[C@@H](C)c2ccc(-c3scnc3C)cc2)C(C)(C)C)cc(C)c1-c1ncn(C)c1-c1ccnc2cc(F)ccc12 |
| 21% | Cc1cc(CNCCCCCCCCCCNc2cccc3c2C(=O)N(C2CCC(=O)NC2=O)C3=O)cc(C)c1-c1ncn(C)c1-c1ccnc2cc(F)ccc12 (stereo not drawn) |
| 10.7% | Cc1cc(CNCCOCCOCCOCC(=O)N[C@H](C(=O)N2C[C@H](O)C[C@H]2C(=O)N[C@@H](C)c2ccc(-c3scnc3C)cc2)C(C)(C)C)cc(C)c1-c1ncn(C)c1-c1ccnc2cc(F)ccc12 |
| 33.1% | Cc1cc(CNCCCCCCCCCCCCCCC(=O)N[C@H](C(=O)N2C[C@H](O)C[C@H]2C(=O)N[C@@H](C)c2ccc(-c3scnc3C)cc2)C(C)(C)C)cc(C)c1-c1ncn(C)c1-c1ccnc2cc(F)ccc12 |
| 15.6% | Cc1cc(CNCCCCCCCCCCCNc2cccc3c2C(=O)N(C2CCC(=O)NC2=O)C3=O)cc(C)c1-c1ncn(C)c1-c1ccnc2cc(F)ccc12 (stereo not drawn) |
| 38% | Cc1cc(CNCCCCCCCCCCCCC(=O)N[C@H](C(=O)N2C[C@H](O)C[C@H]2C(=O)N[C@@H](C)c2ccc(-c3scnc3C)cc2)C(C)(C)C)cc(C)c1-c1ncn(C)c1-c1ccnc2cc(F)ccc12 |
| 1.5% | Cc1cc(CNCCCCCCCCCCCC(=O)N[C@H](C(=O)N2C[C@H](O)C[C@H]2C(=O)N[C@@H](C)c2ccc(-c3scnc3C)cc2)C(C)(C)C)cc(C)c1-c1ncn(C)c1-c1ccnc2cc(F)ccc12 |
| -7.2% | Cc1cc(CNCCOCCOCCC(=O)N[C@H](C(=O)N2C[C@H](O)C[C@H]2C(=O)N[C@@H](C)c2ccc(-c3scnc3C)cc2)C(C)(C)C)cc(C)c1-c1ncn(C)c1-c1ccnc2cc(F)ccc12 |
| 0.7% | Cc1cc(CNCCCCCCCCC(=O)N[C@H](C(=O)N2C[C@H](O)C[C@H]2C(=O)N[C@@H](C)c2ccc(-c3scnc3C)cc2)C(C)(C)C)cc(C)c1-c1ncn(C)c1-c1ccnc2cc(F)ccc12 |
| 53.5% | Cc1cc(CNCCCCCN2CCN(CC(=O)N[C@H](C(=O)N3C[C@H](O)C[C@H]3C(=O)N[C@@H](C)c3ccc(-c4scnc4C)cc3)C(C)(C)C)CC2)cc(C)c1-c1ncn(C)c1-c1ccnc2cc(F)ccc12 |
